We go through 8 compounds from ChEMBL document CHEMBL4680227, “Design and synthesis of selective degraders of EGFR mutant” (Eur J Med Chem, 2020).

Assay type in all cases: cell-based
The target of experiment [1] is von Hippel-Lindau disease tumor suppressor/Epidermal growth factor receptor (Homo sapiens, UniProt P00533+P40337, T790M/L858R). Kind of experiment: (§1) Protac activity at VHL/EGFR L858R/T790M mutant in human NCI-H1975 cells assessed as EGFR degradation by Western blot analysis. Background: In western blotting, separated proteins are transferred to a membrane and probed.

Experiment [2] has as its target von Hippel-Lindau disease tumor suppressor/Epidermal growth factor receptor (Homo sapiens, UniProt P00533+P40337). The experiment is described as follows: Protac activity at VHL/EGFR in human A431 cells assessed as EGFR degradation by Western blot analysis. As to conditions: a-431.
Experiment [3] has as its system von Hippel-Lindau disease tumor suppressor/Epidermal growth factor receptor (Homo sapiens), P00533+P40337 [L858R,T790M]. The description is as §1.
In experiment [4] the target is E3 ubiquitin-protein ligase Mdm2/Epidermal growth factor receptor (Homo sapiens, UniProt Q00987+P00533, T790M/L858M). The experiment is described as follows: Protac activity at MDM2/EGFR L858R/T790M mutant in human NCI-H1975 cells assessed as EGFR degradation by Western blot analysis.
Experiment [5] deals with E3 ubiquitin-protein ligase Mdm2/Epidermal growth factor receptor (Homo sapiens, UniProt Q00987+P00533). The experiment is described as follows: Protac activity at MDM2/EGFR in human A431 cells assessed as EGFR degradation by Western blot analysis. As to conditions: a-431.
For experiment [6], the target named is Baculoviral IAP repeat-containing protein 2/Epidermal growth factor receptor (Homo sapiens, UniProt P00533+Q13490). The experiment is described as follows: Protac activity at cIAP1/EGFR in human A431 cells assessed as EGFR degradation by Western blot analysis. As to conditions: a-431.

In the case of `C=CC(=O)Nc1cccc(-n2c(=O)cc(C)c3cnc(Nc4ccc(N5CCN(CCCCCCCCCCCC(=O)N[C@H](C(=O)N6C[C@H](O)C[C@H]6C(=O)NCc6ccc(-c7scnc7C)cc6)C(C)(C)C)CC5)cc4OC)nc32)c1`, the DC50 is over 2 µM in experiment [1] and 0.0503 µM in experiment [2].
Turning to `C=CC(=O)Nc1cccc(-n2c(=O)cc(C)c3cnc(Nc4ccc(N5CCN(C(=O)CCCCCCCCCCC(=O)N[C@H](C(=O)N6C[C@H](O)C[C@H]6C(=O)NCc6ccc(-c7scnc7C)cc6)C(C)(C)C)CC5)cc4OC)nc32)c1`, in experiment [3], the Activity entry is “Dose-dependent effect”. In addition, the DC50 in experiment [2] is over 2 µM.
As to `C=CC(=O)Nc1cccc(-n2c(=O)cc(C)c3cnc(Nc4ccc(N5CCN(C(=O)CCCCCCCCCNC(=O)c6ccc(NC(=O)[C@@H]7N[C@@H](CC(C)(C)C)[C@](C#N)(c8ccc(Cl)cc8F)[C@H]7c7cccc(Cl)c7F)c(OC)c6)CC5)cc4OC)nc32)c1`, the 50% degradation concentration (DC50) is 0.313 µM in experiment [4] and over 2 µM in experiment [5].
`C=CC(=O)Nc1cccc(-n2c(=O)cc(C)c3cnc(Nc4ccc(N5CCN(CCCCCCCCCCCCNC(=O)c6ccc(NC(=O)[C@@H]7N[C@@H](CC(C)(C)C)[C@](C#N)(c8ccc(Cl)cc8F)[C@H]7c7cccc(Cl)c7F)c(OC)c6)CC5)cc4OC)nc32)c1`: the DC50 in experiment [5] was over 2 µM.
Take `C=CC(=O)Nc1cccc(-n2c(=O)cc(C)c3cnc(Nc4ccc(N5CCN(CCCCCCCC(=O)N[C@H](C(=O)N6C[C@H](O)C[C@H]6C(=O)NCc6ccc(-c7scnc7C)cc6)C(C)(C)C)CC5)cc4OC)nc32)c1`: the DC50 in experiment [1] is 0.466 µM; in experiment [2], over 2 µM.
As for `C=CC(=O)Nc1cccc(-n2c(=O)cc(C)c3cnc(Nc4ccc(N5CCN(C(=O)CCCCC(=O)N[C@H](C(=O)N6C[C@H](O)C[C@H]6C(=O)NCc6ccc(-c7scnc7C)cc6)C(C)(C)C)CC5)cc4OC)nc32)c1`, the half-maximal degradation concentration (DC50) in experiment [2] was over 2 µM.
Regarding `C=CC(=O)Nc1cccc(-n2c(=O)cc(C)c3cnc(Nc4ccc(N5CCN(C(=O)CCCCCCCCC(=O)N[C@H](C(=O)N6C[C@H](O)C[C@H]6C(=O)NCc6ccc(-c7scnc7C)cc6)C(C)(C)C)CC5)cc4OC)nc32)c1`, the 50% degradation concentration (DC50) in experiment [1] was 0.069 µM; in experiment [2], over 2 µM.
Take `C=CC(=O)Nc1cccc(-n2c(=O)cc(C)c3cnc(Nc4ccc(N5CCN(C(=O)CCCCCCCCCCCNC(=O)[C@H](CC(C)C)NC(=O)[C@@H](O)[C@H](N)Cc6ccccc6)CC5)cc4OC)nc32)c1`: the 50% degradation concentration (DC50) in experiment [6] was over 2 µM.

Broadly, the DC50 is the concentration giving 50% degradation.
